According to ChEMBL document CHEMBL3885881, “DrugMatrix”:

Species on record: Rattus norvegicus
Test: DrugMatrix - Regimen: Daily Repeat
Type: toxicity, organism-based, Sprague-Dawley
Design: regimen Daily Repeat, gender Male, age 6-8 weeks
Details: in vivo, po, 3 mg/kg, route oral GAVAGE, dose level Low, vehicle 100 % WATER; for ABSOLUTE BASOPHIL / ABSOLUTE EOSINOPHIL / ABSOLUTE LYMPHOCYTE / ABSOLUTE MONOCYTE / ABSOLUTE SEGMENTED NEUTROPHIL / BASOPHIL / EOSINOPHIL / ERYTHROCYTE COUNT / HEMATOCRIT / HEMOGLOBIN / LEUKOCYTE COUNT / LYMPHOCYTE / MEAN CORPUSCULAR HEMOGLOBIN / MEAN CORPUSCULAR HEMOGLOBIN CONCENTRATION / MONOCYTE / NEUTROPHIL / NUCLEATED RED BLOOD CELLS / PLATELET COUNT: tissue Blood; for ALANINE AMINOTRANSFERASE / ALBUMIN / ALKALINE PHOSPHATASE / ASPARTATE AMINOTRANSFERASE / BLOOD UREA NITROGEN / CARBON DIOXIDE / CHLORIDE / CHOLESTEROL / CREATINE PHOSPHOKINASE / CREATININE / GLUCOSE / LACTATE DEHYDROGENASE / LIPASE / PHOSPHORUS / SODIUM / TOTAL BILIRUBIN / TOTAL PROTEIN / URIC ACID: tissue Plasma

COc1cc2nc(N3CCN(C(=O)C4CCCO4)CC3)nc(N)c2cc1OC (configuration not stated) [TERAZOSIN] was tested, and the “ABSOLUTE BASOPHIL” value (72 h, time 3 day) was 0 CELLS/uL, the “ABSOLUTE EOSINOPHIL” value (72 h, time 3 day) was 53.33 CELLS/uL and the “ABSOLUTE LYMPHOCYTE” value (72 h, time 3 day) was 7633 CELLS/uL. The “ABSOLUTE MONOCYTE” value (72 h, time 3 day) was 36.67 CELLS/uL, the “ABSOLUTE SEGMENTED NEUTROPHIL” value (72 h, time 3 day) was 977 CELLS/uL and the BASOPHIL (72 h, time 3 day) was 0%. The EOSINOPHIL (72 h, time 3 day) was 0.67%, the “ERYTHROCYTE COUNT” value (72 h, time 3 day) was 4.99 x10E6/uL and the HEMATOCRIT (72 h, time 3 day) was 32.2%. For the same compound, the HEMOGLOBIN (72 h, time 3 day) was 12.87 G/DL, the “LEUKOCYTE COUNT” value (72 h, time 3 day) was 8.7 x10E3/uL and the LYMPHOCYTE (72 h, time 3 day) was 88%. For the same compound, the “MEAN CORPUSCULAR HEMOGLOBIN” value (72 h, time 3 day) was 25.87 pg, the “MEAN CORPUSCULAR HEMOGLOBIN CONCENTRATION” value (72 h, time 3 day) was 40 G/DL and the MONOCYTE (72 h, time 3 day) was 0.33%. The NEUTROPHIL (72 h, time 3 day) was 11%, the “NUCLEATED RED BLOOD CELLS” value (72 h, time 3 day) was 0 /100WBC and the “PLATELET COUNT” value (72 h, time 3 day) was 1053.33 x10E3/uL. The “ALANINE AMINOTRANSFERASE” value (72 h, time 3 day) was 63.67 u/L, the ALBUMIN (72 h, time 3 day) was 4.27 G/DL and the “ALKALINE PHOSPHATASE” value (72 h, time 3 day) was 367.67 u/L. For the same compound, the “ASPARTATE AMINOTRANSFERASE” value (72 h, time 3 day) was 102.33 u/L, the “BLOOD UREA NITROGEN” value (72 h, time 3 day) was 16.67 mg/dL and the “CARBON DIOXIDE” value (72 h, time 3 day) was 32.67 mmol/L. For the same compound, the CHLORIDE (72 h, time 3 day) was 103.33 MEQ/L, the CHOLESTEROL (72 h, time 3 day) was 74 mg/dL and the “CREATINE PHOSPHOKINASE” value (72 h, time 3 day) was 321.67 u/L. For the same compound, the CREATININE (72 h, time 3 day) was 0.24 mg/dL, the GLUCOSE (72 h, time 3 day) was 155 mg/dL and the “LACTATE DEHYDROGENASE” value (72 h, time 3 day) was 197.67 u/L. For the same compound, the LIPASE (72 h, time 3 day) was 8.33 u/L, the PHOSPHORUS (72 h, time 3 day) was 12.7 mg/dL and the SODIUM (72 h, time 3 day) was 145.9 MEQ/L. For the same compound, the “TOTAL BILIRUBIN” value (72 h, time 3 day) was 0.13 mg/dL, the “TOTAL PROTEIN” value (72 h, time 3 day) was 5.97 G/DL and the “URIC ACID” value (72 h, time 3 day) was 1.27 mg/dL. For the same compound, the “ABSOLUTE BASOPHIL” value (120 h, time 5 day) was 0 CELLS/uL, the “ABSOLUTE EOSINOPHIL” value (120 h, time 5 day) was 0 CELLS/uL and the “ABSOLUTE LYMPHOCYTE” value (120 h, time 5 day) was 9705.67 CELLS/uL. The “ABSOLUTE MONOCYTE” value (120 h, time 5 day) was 145.67 CELLS/uL, the “ABSOLUTE SEGMENTED NEUTROPHIL” value (120 h, time 5 day) was 882 CELLS/uL and the BASOPHIL (120 h, time 5 day) was 0%. For the same compound, the EOSINOPHIL (120 h, time 5 day) was 0%, the “ERYTHROCYTE COUNT” value (120 h, time 5 day) was 5.4 x10E6/uL and the HEMATOCRIT (120 h, time 5 day) was 35.9%. The HEMOGLOBIN (120 h, time 5 day) was 13.87 G/DL, the “LEUKOCYTE COUNT” value (120 h, time 5 day) was 10.73 x10E3/uL and the LYMPHOCYTE (120 h, time 5 day) was 90.33%. For the same compound, the “MEAN CORPUSCULAR HEMOGLOBIN” value (120 h, time 5 day) was 25.7 pg, the “MEAN CORPUSCULAR HEMOGLOBIN CONCENTRATION” value (120 h, time 5 day) was 38.67 G/DL and the MONOCYTE (120 h, time 5 day) was 1.33%. The NEUTROPHIL (120 h, time 5 day) was 8.33%, the “NUCLEATED RED BLOOD CELLS” value (120 h, time 5 day) was 0 /100WBC and the “PLATELET COUNT” value (120 h, time 5 day) was 1076.33 x10E3/uL. The “ALANINE AMINOTRANSFERASE” value (120 h, time 5 day) was 56.67 u/L, the ALBUMIN (120 h, time 5 day) was 4.27 G/DL and the “ALKALINE PHOSPHATASE” value (120 h, time 5 day) was 361.33 u/L. For the same compound, the “ASPARTATE AMINOTRANSFERASE” value (120 h, time 5 day) was 85.33 u/L, the “BLOOD UREA NITROGEN” value (120 h, time 5 day) was 20.67 mg/dL and the “CARBON DIOXIDE” value (120 h, time 5 day) was 30 mmol/L. The CHLORIDE (120 h, time 5 day) was 102.67 MEQ/L, the CHOLESTEROL (120 h, time 5 day) was 75.33 mg/dL and the “CREATINE PHOSPHOKINASE” value (120 h, time 5 day) was 197.33 u/L. For the same compound, the CREATININE (120 h, time 5 day) was 0.24 mg/dL, the GLUCOSE (120 h, time 5 day) was 172 mg/dL and the “LACTATE DEHYDROGENASE” value (120 h, time 5 day) was 141.67 u/L. It also gave an LIPASE (120 h, time 5 day) of 11.33 u/L, a PHOSPHORUS (120 h, time 5 day) of 13.7 mg/dL and an SODIUM (120 h, time 5 day) of 146.17 MEQ/L. The “TOTAL BILIRUBIN” value (120 h, time 5 day) was 0.2 mg/dL, the “TOTAL PROTEIN” value (120 h, time 5 day) was 5.9 G/DL and the “URIC ACID” value (120 h, time 5 day) was 1.7 mg/dL.
